According to patent US20070288217A1, “Method for Standardization of Chemical and Therapeutic Values of Foods and Medicines Using Animated Chromatographic Fingerprinting” (priority 2004, published 2007):
“Also recorded” adds a separate entry of the source.

Assay: Chromatographic fingerprinting (HPLC-PDA contour and 3-D chromatograms) with interpretation of chemical and therapeutic properties by polarity and conjugation zones
Details: for Change of the molecules with time in the media (fingerprints at different time intervals): different time intervals under chemical conditions

Cc1ccc(-c2cc(C(F)(F)F)nn2-c2ccc(S(N)(=O)=O)cc2)cc1 [Celebocoxib]
Action compared to the other medicines of the same group: different in action

O=C(/C=C/c1ccc(O)c(O)c1)O[C@@H]1C[C@](O)(C(=O)O)C[C@@H](O)[C@H]1O [Chlorogenic acid]
Change of the molecules with time in the media (fingerprints at different time intervals): under go changes

CC(C)=CCC/C(C)=C/C=C/C(C)=C/C=C/C(C)=C/C=C/C=C(C)/C=C/C=C(C)/C=C/C=C(\C)CCC=C(C)C [Lycopine]
Therapeutic property / site of action interpreted from the fingerprint: shrothoshodhaka property; also recorded: stress reliever
Change of the molecules with time in the media (fingerprints at different time intervals): under go changes; also recorded: slowly diminished with time

CC12CC3CC(C)(C1)CC(N)(C3)C2 [Mamentane]
Effect when consumed excessively, interpreted from the fingerprint (excessive use): effect on Maha srothas

COc1ccc2[nH]c([S+]([O-])Cc3ncc(C)c(OC)c3C)nc2c1 (stereo not shown) [Onmeprazole]
Therapeutic property interpreted from the fingerprint (simulated acidic condition): Ropaneeya property
Therapeutic property interpreted from the fingerprint (the other prakrithi): has not acted so
